Measurements taken from US12384777B2 (Tay Therapeutics Limited, priority 2019, dated 2025).
Where two headings read alike, the source gives them in different places.

What was measured:
BRD4 BD1 = BRD4 BD1 (Homo sapiens (Human), UniProt O60885); assay: Bromodomain binding assay (T7 phage display, qPCR), BRD4 BD1; details: for Kd: read-out: BRD4 BD1 Kd
BRD4 BD2 = BRD4 BD2 (Homo sapiens (Human), UniProt O60885); assay: Bromodomain binding assay (T7 phage display, qPCR), BRD4 BD2; details: for Kd: read-out: BRD4 BD2 Kd
Method: T7 phage strains displaying bromodomains were grown in parallel in 24-well blocks in an E. coli host derived from the BL21 strain. E. coli were grown to log-phase and infected with T7 phage from a frozen stock (multiplicity of infection=0.4) and incubated with shaking at 32° C. until lysis (90-150 min). The lysates were centrifuged (5,000×g) and filtered (0.2 μm) to remove cell debris. Streptavidin-coated magnetic beads were treated with biotinylated small molecule or acetylated peptide ligands for 30 min at RT to generate affinity resins for bromodomain assays. The ligated beads were blocked with excess biotin and washed with blocking buffer (SeaBlock (Pierce), 1% BSA, 0.05% Tween 20, 1 mM DTT) to remove unbound ligand and to reduce non-specific phage binding. Binding reactions were assembled by combining bromodomains, ligated affinity beads, and test compounds in 1× binding buffer (16% SeaBlock, 0.32×PBS, 0.02% BSA, 0.04% Tween 20, 0.004% Sodium azide, 7.9 mM DTT). Test compounds were prepared as 1000× stocks in 100% DMSO and subsequently diluted 1:25 in MEG. The compounds were then diluted directly into the assays such that the final concentrations of DMSO and MEG were 0.1% and 2.4%, respectively. All reactions were performed in polypropylene 384-well plates in a final volume of 0.02 ml. The assay plates were incubated at RT with shaking for 1 hr and the affinity beads were washed with wash buffer (1×PBS, 0.05% Tween 20). The beads were then re-suspended in elution buffer (1×PBS, 0.05% Tween 20, 2 μM non-biotinylated affinity ligand) and incubated at RT with shaking for 30 min. The bromodomain concentration in the eluates was measured by quantitative polymerase chain reaction (qPCR).
An 11-point 3-fold serial dilution of each test compound was prepared in 100% DMSO at 1000× final test concentration. All compounds were distributed by acoustic transfer (non-contact dispensing) in 100% DMSO. The compounds were then diluted directly into the assays such that the final concentration of DMSO was 0.09%. Most dissociation constants were determined using a compound top concentration=10,000 nM. If the initial dissociation constant determined was <0.169 nM (the lowest concentration tested), the measurement was repeated with a serial dilution starting at a lower top concentration.
The same bromodomain assay procedure as that outlined above was used. Example compounds were screened at 30 times their Kd, and results for primary screen binding interactions are reported as ‘% Ctrl’, where lower numbers indicate stronger hits in the matrix.

[1] = system: primary keratinocytes stimulated by polyinosinic:polycytidylic acid; assay: Cellular activity broad panel: reduction of cytokine/chemokine levels in stimulated primary keratinocytes; format: cell-based; details: Homo sapiens, Keratinocyte
Method: • 1. Seed Primary Human Keratinocytes cells (PHK) at 9000 cells/well in a flat bottom 96 well plate. • 2. […] Cells are cultured for 24 hr prior to TLR ligand stimulation (polyinosinic:polycytidylic acid). • 4. Cells are treated with 20 μg/mL polyinosinic:polycytidylic acid for 48 hrs in 180 μL of media and treated for different compounds or controls. • 5. Supernatant is collected and Chemokine and Cytokines analysis is performed by Magpix-Luminex. Immunoassay Procedure Day 1 • 1. Add 200 μL of Assay Buffer per well. Shake 10 min, RT. Decant. • 2. Add 25 μL of Standard or Control to the appropriate wells. • 3. Add 25 μL of Assay Buffer to background and sample wells. • 4. Add 25 μL of cell media to background, standard and control wells. • 5. Add 25 μL neat samples to sample wells. • 6. Add 25 μL of Beads to each well. • 7. Incubate overnight (16-18 hr) at 4° C. Day 2 • 8. Remove well contents and wash 2× with 200 μL Wash buffer. • 9. Add 25 μL of Detection Antibodies per well. • 10. Incubate 1 hr at RT (20-25° C.). • 11. […] Incubate for 30 min at RT. • 13. Remove well contents and wash 2× with 200 μL Wash buffer. • 14. Add 150 μL of Wash Buffer per well. Resuspend the beads on a plate shaker for 5 min. • 15. Read on Luminex 100 μl (50 beads per bead set).

human liver hepatocytes = assay: Intrinsic clearance in human liver hepatocytes; format: in vitro ADME; details: human cryopreserved hepatocytes, 0.5 μM test compound
Method in brief: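 Cryopreserved human hepatocytes in supplemented Williams Medium E were incubated at 37 °C, 5% CO2, with 0.5 μM compound at 0.25 million cells/mL final. Aliquots taken up to 120 min were quenched into acetonitrile and analysed by UPLC-MS/MS. Clearance came from an exponential decay fit of compound-to-internal-standard ratio over time.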

[2] = Solubility in topical formulations; format: physicochemical; details: thermodynamic from solid, 5 hr at 32° C.
Method: The solubilities of solid exemplary compounds were determined in a selection of solvents and solvent combinations (Transcutol, 50:50 Transcutol:water, Labrasol, propylene glycol and 1:5:4 ethanol:propylene glycol:water), after equilibration. An appropriate volume of each combination was added to a manual weighing of solid compound to provide a 20 mg/mL concentration. The resulting suspension was shaken at 1000 rpm for 5 hr at 32° C. before centrifugation at 13,000×g for 10 min to pellet any precipitate. The supernatant solution was removed and inserted into a HPLC vial and quantified by HPLC-UV against a calibration of a known concentration of the compound in DMSO.

[3] = single point, screened at 30 times Kd, lower numbers indicate stronger hits
[4] = disease relevant markers, read-out: cellular EC50 values in stimulated human primary keratinocytes
[5] = poly I:C 20 μg/mL, 48 hrs, read-out: EC50 reduction of CCL2
[6] = poly I:C 20 μg/mL, 48 hrs, read-out: EC50 reduction of CCL20
[7] = poly I:C 20 μg/mL, 48 hrs, read-out: EC50 reduction of CCL27
[8] = poly I:C 20 μg/mL, 48 hrs, read-out: EC50 reduction of CXCL9
[9] = poly I:C 20 μg/mL, 48 hrs, read-out: EC50 reduction of GM-CSF
[10] = poly I:C 20 μg/mL, 48 hrs, read-out: EC50 reduction of IL-1a
[11] = poly I:C 20 μg/mL, 48 hrs, read-out: EC50 reduction of IL-6
[12] = poly I:C 20 μg/mL, 48 hrs, read-out: EC50 reduction of IL-8
[13] = poly I:C 20 μg/mL, 48 hrs, read-out: EC50 reduction of TNF-a
[14] = poly I:C 20 μg/mL, 48 hrs, read-out: EC50 reduction of TSLP
[15] = Labrasol, oil or lipid, read-out: Solubility in LB (Labrasol)
[16] = Transcutol, organic solvent or mixture, read-out: Solubility in TC (Transcutol)
[17] = Transcutol:water 1:1, aqueous with cosolvent or surfactant or cyclodextrin, read-out: Solubility in TC:water 1:1
[18] = ethanol:propylene glycol:water 1:5:4, aqueous with cosolvent or surfactant or cyclodextrin, read-out: Solubility in EtOH:PG:water 1:5:4
[19] = propylene glycol, organic solvent or mixture, read-out: Solubility in PG (Propylene glycol)

Row | Kd (BRD4 BD1) | Kd (BRD4 BD2) | EC50 [1, 4] | EC50 [1, 5] | EC50 [1, 6] | EC50 [1, 7] | EC50 [1, 8] | EC50 [1, 9] | EC50 [1, 10] | EC50 [1, 11] | EC50 [1, 12] | EC50 [1, 13] | EC50 [1, 14] | Intrinsic clearance, % Liver Blood Flow (human liver hepatocytes) | solubility at 5 hr [2, 15] | solubility at 5 hr [2, 16] | solubility at 5 hr [2, 17] | solubility at 5 hr [2, 18] | solubility at 5 hr [2, 19] | Compound | also measured
1 | ≤ 10 nM | ≤ 10 nM | < 100 nM | 10 to 100 nM | 10 to 100 nM | 10 to 100 nM | ≤ 10 nM | ≤ 10 nM | ≤ 10 nM | 10 to 100 nM | ≤ 10 nM | ≤ 10 nM | 10 to 100 nM | 83 % Liver Blood Flow | 1000 to 10000 µg/mL | > 10000 µg/mL | 1000 to 10000 µg/mL | 1000 to 10000 µg/mL | 1000 to 10000 µg/mL | Cn1cc(-c2cccc(O)c2Oc2ccccc2)c2cc[nH]c2c1=O [Example 1, 4-(3-hydroxy-2-phenoxyphenyl)-6-methyl-1,6-dihydro-7H-pyrrolo[2,3-c]pyridin-7-one] | BRD4(1) % Ctrl (BRD4 BD1; [3]): 0 % Ctrl; BRD4(2) % Ctrl (BRD4 BD2; [3]): 2.6 % Ctrl
2 | 10 to 100 nM | ≤ 10 nM | < 100 nM | ≤ 10 nM | ≤ 10 nM | 10 to 100 nM | ≤ 10 nM | ≤ 10 nM | ≤ 10 nM | 10 to 100 nM | ≤ 10 nM | ≤ 10 nM | ≤ 10 nM | 86 % Liver Blood Flow | > 10000 µg/mL | > 10000 µg/mL | > 10000 µg/mL | 1000 to 10000 µg/mL | > 10000 µg/mL | Cn1cc(-c2c(O)cccc2Oc2ccccc2)c2cc[nH]c2c1=O [Example 3, 4-(2-hydroxy-6-phenoxyphenyl)-6-methyl-1,6-dihydro-7H-pyrrolo[2,3-c]pyridin-7-one] | 
